Data reported in publication PMC7461020 (The EMBO Journal, 2020).
Entries after “also recorded” stand apart in the source; their conditions may differ.

Columns and labels:
SARS-CoV-2 [1] = type: cell-based
SARS-CoV-2 [2] = type: cell-based; remark: listed apart in the source

With `CCN(CCO)CCCC(C)Nc1ccnc2cc(Cl)ccc12` (centres unmarked) [Hydroxychloroquine, reference compound] the “Reduction of viral titre” value (SARS-CoV-2 [1]) was 10 fold and the “Rescue of CPE” value (SARS-CoV-2 [2]) was ~ 90%.
For `CCC(CC)COC(=O)[C@H](C)N[P@](=O)(OC[C@H]1O[C@@](C#N)(c2ccc3c(N)ncnn23)[C@H](O)[C@@H]1O)Oc1ccccc1` [Remdesivir, reference compound], the “Reversal of SARS-CoV-2 induced CPE” value (SARS-CoV-2 [2]) was ~ 90%.
`CC(c1cccc2ccccc12)N1CCC(C(=O)NCc2cccc(F)c2)CC1` (stereo not drawn) [rac3k] was tested, and the “CPE reduction at lower concentrations” value (SARS-CoV-2 [2]) was “diminished”, the “Effect on SARS-CoV-2-induced CPE” value (SARS-CoV-2 [2]) was “significantly rescued infected cells; also recorded: reduced SARS‐CoV‐2‐induced CPE” and the Remaining cell death (SARS-CoV-2 [2]) was “around 20%”. The “Toxicity on Vero cells” value (Vero cells) was “no toxicity” and the Cellular toxicity (Vero cells; African green monkey) was about 25%.
